Assay [1] has as its target T1, Sentrin-specific protease 8 (Homo sapiens, UniProt Q96LD8).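 Also: luminescence read-out of SENP8 inhibition, dose-response confirmation following an ultra-high-throughput screen.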
T1 sequence (Q96LD8 whole entry): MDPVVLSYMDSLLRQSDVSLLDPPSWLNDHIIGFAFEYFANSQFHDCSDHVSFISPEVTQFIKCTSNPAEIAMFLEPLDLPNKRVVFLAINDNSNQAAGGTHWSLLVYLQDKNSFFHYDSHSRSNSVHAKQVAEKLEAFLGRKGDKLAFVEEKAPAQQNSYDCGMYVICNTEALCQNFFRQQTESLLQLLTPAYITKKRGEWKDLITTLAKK
Format: functional.

Assay [2] has as its target T2, Sentrin-specific protease 6 (Homo sapiens, UniProt Q9GZR1).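 Also: Luminescence-based dose-response confirmatory assay of SENP6 inhibition, following up an ultra-high-throughput screen.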
T2 sequence (Q9GZR1 whole entry): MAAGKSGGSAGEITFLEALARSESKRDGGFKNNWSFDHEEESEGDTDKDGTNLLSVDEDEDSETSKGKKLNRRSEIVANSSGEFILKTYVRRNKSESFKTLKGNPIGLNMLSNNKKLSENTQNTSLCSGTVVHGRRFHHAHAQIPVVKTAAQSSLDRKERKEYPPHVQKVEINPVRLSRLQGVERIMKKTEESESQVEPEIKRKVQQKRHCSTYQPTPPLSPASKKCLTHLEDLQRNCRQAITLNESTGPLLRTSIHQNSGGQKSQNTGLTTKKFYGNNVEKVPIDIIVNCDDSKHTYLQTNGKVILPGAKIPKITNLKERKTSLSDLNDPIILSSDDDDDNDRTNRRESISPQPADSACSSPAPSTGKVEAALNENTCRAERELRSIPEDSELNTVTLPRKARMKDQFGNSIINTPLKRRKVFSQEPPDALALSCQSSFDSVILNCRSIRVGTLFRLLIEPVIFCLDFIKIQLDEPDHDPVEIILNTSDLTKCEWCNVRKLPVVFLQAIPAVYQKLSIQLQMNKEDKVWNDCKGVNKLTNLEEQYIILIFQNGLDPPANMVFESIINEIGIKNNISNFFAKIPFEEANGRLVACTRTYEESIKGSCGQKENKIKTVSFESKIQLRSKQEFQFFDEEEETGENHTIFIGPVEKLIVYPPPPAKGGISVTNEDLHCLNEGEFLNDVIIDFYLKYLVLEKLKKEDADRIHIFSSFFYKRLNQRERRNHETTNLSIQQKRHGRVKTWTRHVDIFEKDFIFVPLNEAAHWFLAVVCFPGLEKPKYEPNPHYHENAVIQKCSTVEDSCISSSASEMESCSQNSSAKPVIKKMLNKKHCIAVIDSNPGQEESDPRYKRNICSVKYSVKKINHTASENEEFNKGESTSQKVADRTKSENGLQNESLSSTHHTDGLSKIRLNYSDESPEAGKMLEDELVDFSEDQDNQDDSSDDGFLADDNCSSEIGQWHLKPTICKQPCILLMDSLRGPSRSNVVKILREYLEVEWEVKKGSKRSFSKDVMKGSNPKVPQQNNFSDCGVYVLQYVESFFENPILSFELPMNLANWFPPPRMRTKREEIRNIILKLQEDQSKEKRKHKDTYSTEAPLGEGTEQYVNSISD
Format: functional.

Assay [3] concerns the target Tyrosyl-DNA phosphodiesterase 2 (Homo sapiens, UniProt O95551). Nature of the assay: potency against TDP2 phosphodiesterase activity – biochemical, epi absorbance, IC50, dose response (AID 743297).
Assay [4] can be described thus: cells. The assay is classed as functional, cell-based.
A short description of assay [5]: cells. Format: functional, cell-based. This is another data set of the same source.
Assay [6] in a line: Counterscreen for AddAB inhibitors: absorbance-based bacterial cell-based high throughput dose response assay for inhibitors of bacterial viability. [Related pubchem assays (depositor defined):AID435030, AID449728, AID449731, AID488942, AID488955, AID488956]. The assay is classed as functional. (A counterscreen serves to expose hits that act by an unwanted route or on another target.)

Another assay deals with INS1. Nature of the assay: INS-1E survival protection against cytokine death – cell-based, luminescence, retest, dose response (AID 449756).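 Also: cell death triggered by IL-1 beta plus TNF-alpha plus IFN-gamma mixture; protective hits raise ATP signal compared with cytokine alone wells.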 Format: functional. Particulars: Rattus norvegicus.
Assay [7] is described as follows: NIH-3T3 fibroblast cytotoxicity, dose response, cytotoxicity control, cell-based, fluorescence, Alamar Blue, secondary assay (AID 2327).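 Also: NIH-3T3 mouse fibroblasts cultured with fluconazole at 8 µg/mL.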 The assay is classed as functional. A general note: The colour change of resazurin is a common sign of viable cells or microbes.

By IC50 is commonly meant the concentration that inhibits the measured activity by half. Broadly, the EC50 is the concentration that produces a half-maximal response. By AC50 is commonly meant the midpoint of the concentration-response curve, whichever way the signal moves.

Structures are written as SMILES. Calls of active or inactive are those of the source.

Sequence of Tyrosyl-DNA phosphodiesterase 2 (O95551 whole entry): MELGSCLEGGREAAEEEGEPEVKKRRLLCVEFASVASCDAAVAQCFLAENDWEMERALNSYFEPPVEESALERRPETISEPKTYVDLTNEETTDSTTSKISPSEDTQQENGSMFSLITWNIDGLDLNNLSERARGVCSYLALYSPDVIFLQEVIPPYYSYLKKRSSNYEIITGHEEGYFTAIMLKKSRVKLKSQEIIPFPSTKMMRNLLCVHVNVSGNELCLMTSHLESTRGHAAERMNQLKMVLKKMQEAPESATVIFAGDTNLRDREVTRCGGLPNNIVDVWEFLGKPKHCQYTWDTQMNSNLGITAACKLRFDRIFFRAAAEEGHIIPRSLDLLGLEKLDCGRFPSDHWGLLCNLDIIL

On to `CC(C)n1cnc2c(NCc3ccccc3)cc(OCC3CCN(C)CC3)cc21`, for which the half-inhibitory concentration (IC50) in assay [1] is 4.97 µM (active); in assay [2], 3.95 µM (active).
Consider `CC(C)N(C(=O)Nc1ccc2nsnc2c1)C(C)C`, for which the figures for the IC50 in assay [1], in assay [2] and in assay [3] were 2.41 µM (active), 2.39 µM (active) and 8.96 µM (active), respectively.
With `NS(=O)(=O)c1ccc(NC2=CC(=O)C(=O)c3ccccc32)cc1`, the IC50 is 4.96 µM (active) in assay [1], 2.89 µM (active) in assay [2] and 5.59 µM (active) in assay [3].
As to `O=C(N/N=C/c1ccc(O)cc1O)c1ccc(CN2C(=O)c3cccc4cccc2c34)cc1`, the figures for the EC50 (in the assay “cells [4]”; in “cells [5]”; in assay [7]) were > 350 µM (not active), 31 µM (active) and 4.96 µM (active), respectively. In addition, the IC50 in assay [6] was > 119 µM (inactive). For the same molecule, the AC50 in the assay on INS1 is 0.768 µM (active).
As for `CCC(=O)NC(c1ccccc1OC)c1ccc2cccnc2c1O` (stereo not drawn), the EC50 in the assay “cells [4]” is > 350 µM (not active); in “cells [5]”, 7.23 µM (active); in assay [7], 26.6 µM (inconclusive). For the same molecule, the IC50 in assay [6] was > 119 µM (inactive). In addition, the AC50 in the assay on INS1 is 1.17 µM (active).

Values taken from ChEMBL document CHEMBL1201862, “PubChem BioAssay data set” (2004).
